Data reported in patent US4489091A, “Antilipemic and anti-inflammatory compositions containing sulfonate derivatives” (Taiho Pharmaceutical Company Limited, priority 1980, dated 1984).
Like-named read-outs stand apart in the source and are kept apart here.

Legend:
[1] = test system: triglycerides; assay: Antilipemic effect: percent triglycerides inhibition in plasma of rats given an olive oil-cholesterol mixture; format: in vivo, male Wistar rats; settings: for inhibition in vivo at 200 mg/kg: read-out: Anti-lipemic effect, TG (percent triglycerides inhibition), asterisked; for inhibition in vivo at 100 mg/kg: oral 100 mg/kg, read-out: Anti-lipemic effect, TG (percent triglycerides inhibition)
Description: (§1) The above compounds of this invention are tested by the following methods for antilipemic effect and acute toxicity. In the column of antilipemic effect in the table, the asterisked values indicate the effect achieved by orally giving 200 mg/kg of the compounds concerned, and the unmarked values, the effect attained by orally giving 100 mg/kg. In the same column, "TG" stands for percent triglycerides inhibition and "CS" percent cholesterol inhibition.
(§2) Seven-week-old male Wistar rats weighing 200 to 220 g are used, 5 rats in each group.
(§3) Each compound of the invention (100 mg or 200 mg) is dissolved in 10 ml of an olive oil-cholesterol mixture (containing 15% of cholesterol). The mixture containing the compound is orally given to the rat with a probe at a dose of 10 ml/kg. Two or 8 hours thereafter, 6 ml of whole blood is withdrawn from the descending aorta of the rat under ether anesthesia with a syringe containing heparin. The blood is centrifuged at 5° C. and 3000 r.p.m. to obtain the plasma. The plasma collected after the lapse of 2 hours is used for determining the triglycerides content, and the plasma obtained 8 hours later for determining the total cholesterol content, using a triglycerides measuring kit (trade mark "Triglycerides-B Test Wako," product of Wako Junyaku Co., Ltd., Japan) and a total cholesterol measuring kit (trade mark "Cholesterol Test Wako," product of the same), respectively. The olive oil-cholesterol mixture containing no compound is similarly given to a control group, while no treatment is conducted for a normal group. The triglycerides and total cholesterol contents in the plasma are also determined for these groups in the same manner as is the case with the test groups.
(§4) The present hyperlipidemia inhibition achieved by the present compound is given by [formula] in which A is the triglycerides (cholesterol) content of the control group, B is the triglycerides (cholesterol) content of the normal group, and C is the triglycerides (cholesterol) content of the group to which the present compound is given.

[2] = test system: cholesterol; assay: Antilipemic effect: percent total cholesterol inhibition in plasma of rats given an olive oil-cholesterol mixture; format: in vivo, male Wistar rats; settings: plasma 8 hours after dosing, Wistar rat; for inhibition in vivo at 100 mg/kg: oral 100 mg/kg, read-out: Anti-lipemic effect, CS (percent cholesterol inhibition)
Description: as §1, §2, §3, §4

[3] = Acute toxicity; settings: rat, in vivo
Source text: Six-week-old male Wistar rats weighing 180 to 200 g are used, 5 rats in each group. Each compound of the invention is suspended in a 30% aqueous solution of polyethylene glycol 6000 and orally given to the rat at the dosage shown in Table 2. The animals are checked for poisoning, body weight and survival to determine the LD50 value.

[4] = oral 200 mg/kg (asterisked values), plasma 2 hours after dosing, Wistar rat
[5] = plasma 2 hours after dosing, Wistar rat
[6] = oral, six-week-old male Wistar rats, suspended in 30% aqueous polyethylene glycol 6000, read-out: LD50

Row | Compound | inhibition in vivo at 200 mg/kg [1, 4] | inhibition in vivo at 100 mg/kg [1, 5] | LD50 ([3]; po) | further results
1 | CCCC(=O)COS(=O)(=O)CCCOCC [Compound 2] | 65% |  |  | 
2 | CCCC(=O)COS(=O)(=O)C1CCCCC1 [Compound 3] | 51% |  |  | 
3 | CCCC(=O)COS(=O)(=O)Cc1ccccc1 [Compound 4] |  | 68% |  | inhibition in vivo at 100 mg/kg [2]: 52%
4 | CCCC(=O)COS(=O)(=O)c1ccccc1 [Compound 6, 2-oxopentylbenzene sulfonate] |  | 90% |  | LD50 [3, 6]: > 1000 mg/kg; inhibition in vivo at 100 mg/kg [2]: 53%
5 | CCCCC(=O)COS(=O)(=O)c1ccccc1 [Compound 7] |  | 98% |  | inhibition in vivo at 100 mg/kg [2]: 67%
6 | CC(C)(C)CC(=O)COS(=O)(=O)c1ccccc1 [Compound 11] |  | 80% | > 3000 mg/kg | inhibition in vivo at 100 mg/kg [2]: 53%
7 | CC(C)CCC(=O)COS(=O)(=O)c1ccccc1 [Compound 12] |  | 95% | > 2500 mg/kg | inhibition in vivo at 100 mg/kg [2]: 63%
8 | CC=CC(=O)COS(=O)(=O)c1ccccc1 [Compound 13] |  | 72% |  | 
9 | CCC(=O)COS(=O)(=O)c1ccc(C)cc1 [Compound 15] |  | 40% | > 1500 mg/kg | inhibition in vivo at 100 mg/kg [2]: 41%
10 | CCCC(=O)COS(=O)(=O)c1ccc(C)cc1 [Compound 16, 2-oxopentyl-p-toluenesulfonate] |  | 64% |  | LD50 [3, 6]: > 1500 mg/kg; inhibition in vivo at 100 mg/kg [2]: 31%
11 | CCCCC(=O)COS(=O)(=O)c1ccc(C)cc1 [Compound 17] |  | 61% | > 2000 mg/kg | inhibition in vivo at 100 mg/kg [2]: 33%
12 | CCCCCCCC(=O)COS(=O)(=O)c1ccc(C)cc1 [Compound 20] |  | 71% | > 3000 mg/kg | inhibition in vivo at 100 mg/kg [2]: 47%
13 | CCCCCCCCC(=O)COS(=O)(=O)c1ccc(C)cc1 [Compound 21] | 70% |  | > 3000 mg/kg | Anti-lipemic effect, CS (percent cholesterol inhibition), asterisked ([2]; oral 200 mg/kg (asterisked values)): 43%
14 | CCCCCCCCCC(=O)COS(=O)(=O)c1ccc(C)cc1 [Compound 22] | 62% |  | > 3000 mg/kg | 
15 | CCCCCCCCCCC(=O)COS(=O)(=O)c1ccc(C)cc1 [Compound 23] | 64% |  | > 3000 mg/kg | 
16 | CCCCCCCCCCCCC(=O)COS(=O)(=O)c1ccc(C)cc1 [Compound 24] | 63% |  | > 3000 mg/kg | 
17 | CCCCCCCCCCCCCCC(=O)COS(=O)(=O)c1ccc(C)cc1 [Compound 25] | 62% |  | > 3000 mg/kg | 
18 | Cc1ccccc1S(=O)(=O)OCC(=O)CCCCCCC(C)C [Compound 33] | 67% |  | > 3000 mg/kg | 
19 | CCCCCCCCCCCC(=O)COS(=O)(=O)c1ccc(OC)cc1 [Compound 39] | 58% |  | > 4000 mg/kg | 
20 | C=CCCCCCCCCC(=O)COS(=O)(=O)c1ccc(OC)cc1 [Compound 42] | 57% |  | > 4000 mg/kg | 

Row | Compound | inhibition in vivo at 200 mg/kg [1, 4] | inhibition in vivo at 100 mg/kg [1, 5] | LD50 ([3]; po) | further results
21 | CCCCOc1ccc(S(=O)(=O)OCC(=O)CCCC)cc1 [Compound 54] |  | 48% | > 2000 mg/kg | 
22 | CCCCCCCCCC(=O)COS(=O)(=O)c1ccc(OCCCC)cc1 [Compound 57] | 52% |  | > 4000 mg/kg | 
23 | CCCCOc1ccc(S(=O)(=O)OCC(=O)CCC(C)C)cc1 [Compound 58] | 61% |  | > 4000 mg/kg | 
24 | CCCC(=O)COS(=O)(=O)c1ccc(O)cc1 [Compound 59] |  | 70% | > 3000 mg/kg | 
25 | CCCCCC(=O)COS(=O)(=O)c1ccc(O)cc1 [Compound 60] |  | 83% | > 3000 mg/kg | 
26 | CCCCCCCCC(=O)COS(=O)(=O)c1ccc(O)cc1 [Compound 61] |  | 67% | > 3000 mg/kg | 
27 | CCC(C)C(=O)COS(=O)(=O)c1ccc(O)cc1 (stereo not drawn) [Compound 63] |  | 76% | > 2000 mg/kg | 
28 | CCCCCCC(=O)COS(=O)(=O)c1ccc(Cl)cc1 [Compound 67] |  | 80% | > 2000 mg/kg | 
29 | CCCCCCCCCC(=O)COS(=O)(=O)c1ccc(Cl)cc1 [Compound 68, 2-oxo-undecyl-p-chlorobenzene sulfonate] |  | 62% |  | LD50 [3, 6]: > 3000 mg/kg
30 | CCCCCCCCCCC(=O)COS(=O)(=O)c1ccc(Cl)cc1 [Compound 69] | 77% |  | > 3000 mg/kg | 
31 | CC(=O)COS(=O)(=O)c1c(C)cc(C)cc1C [Compound 71] |  | 60% |  | inhibition in vivo at 100 mg/kg [2]: 82%
32 | CCCCCCCCCC(=O)COS(=O)(=O)c1c(C)cc(C)cc1C [Compound 79] | 61% |  | > 4000 mg/kg | 
33 | CCCCCCCCCCCC(=O)COS(=O)(=O)c1c(C)cc(C)cc1C [Compound 81] | 60% |  | > 4000 mg/kg | 
34 | CCCCC(CC)C(=O)COS(=O)(=O)c1c(C)cc(C)cc1C (stereo not drawn) [Compound 84] |  | 59% | > 4000 mg/kg | 
35 | Cc1cc(C)c(S(=O)(=O)OCC(=O)CCCCCCC(C)C)c(C)c1 [Compound 85] |  | 48% | > 4000 mg/kg | 
36 | CCCCC=CCC(=O)COS(=O)(=O)c1c(C)cc(C)cc1C [Compound 87] | 57% |  |  | 
37 | C=CCCCCCCCCC(=O)COS(=O)(=O)c1c(C)cc(C)cc1C [Compound 88] | 66% |  | > 4000 mg/kg | 
38 | CCCC(=O)COS(=O)(=O)c1c(C)c(C)cc(C)c1C [Compound 89] | 56% |  | > 3000 mg/kg | 
39 | CCCCCCCC(=O)COS(=O)(=O)c1c(C)c(C)cc(C)c1C [Compound 91] | 47% |  | > 3000 mg/kg | 
40 | CCCCCCCCCCC(=O)COS(=O)(=O)c1c(C)c(C)cc(C)c1C [Compound 92] | 43% |  |  | LD50 [3, 6]: > 3000 mg/kg

Row | Compound | inhibition in vivo at 200 mg/kg [1, 4] | inhibition in vivo at 100 mg/kg [1, 5] | LD50 ([3]; po) | further results
41 | C=CCCC(=O)COS(=O)(=O)c1c(C)c(C)cc(C)c1C [Compound 93] | 60% |  | > 3000 mg/kg | 
42 | Cc1cc(C)c(C)c(S(=O)(=O)OCC(=O)CCCCCCC(C)C)c1C [Compound 94] | 51% |  | > 3000 mg/kg | 
43 | CCCC(=O)COS(=O)(=O)c1cccc(C(=O)O)c1 [Compound 102] | 42% |  | > 3000 mg/kg | 
44 | CCCC(=O)COS(=O)(=O)c1ccc(NC(C)=O)cc1 [Compound 103] | 51% |  | > 3000 mg/kg | 
45 | CCCCCCCCCCCCc1ccc(S(=O)(=O)OCC(=O)CCC)cc1 [Compound 104] | 56% |  | > 3000 mg/kg | 
46 | CCCC(=O)COS(=O)(=O)c1ccccc1C1OCCO1 [Compound 105] | 55% |  | > 3000 mg/kg | 
47 | CCCC(=O)COS(=O)(=O)c1ccc([N+](=O)[O-])cc1 [Compound 106] | 60% |  |  | 
48 | CCCC(=O)COS(=O)(=O)c1cc(Cl)ccc1Cl [Compound 107] |  | 75% | > 1500 mg/kg | 
49 | CCCC(=O)COS(=O)(=O)c1ccc(C)c(Cl)c1 [Compound 108] |  | 64% | > 1500 mg/kg | 
50 | CCCC(=O)COS(=O)(=O)c1ccc(Cl)cc1O [Compound 109] | 82% |  | > 2000 mg/kg | 
51 | CCCC(=O)COS(=O)(=O)c1ccc(O)c(OC)c1 [Compound 110] |  | 70% |  | 
52 | CCCC(=O)COS(=O)(=O)c1cc(Cl)c(Cl)cc1Cl [Compound 113] |  | 60% | > 1500 mg/kg | 
53 | CCCC(=O)COS(=O)(=O)c1c(C(C)C)cc(C(C)C)cc1C(C)C [Compound 115] | 67% |  | > 3000 mg/kg | 
54 | CCCC(=O)COS(=O)(=O)c1c(C)c(C)c(C)c(C)c1C [Compound 118] | 76% |  | > 3000 mg/kg | 
55 | CCCC(=O)COS(=O)(=O)c1cc(Br)ccc1OC [Compound 119] |  | 67% | > 2000 mg/kg | 
56 | CCCC(C)CC(=O)COS(=O)(=O)c1ccc(OCC)cc1 (stereo not drawn) [Compound 142] |  | 47% | > 4000 mg/kg | 
57 | CCOc1ccc(S(=O)(=O)OCC(=O)CCC(CC)CC)cc1 [Compound 144] |  |  |  | LD50 [3, 6]: > 4000 mg/kg; inhibition in vivo at 200 mg/kg ([1]; Rattus norvegicus, po, 2 h): 55%
58 | CCOc1ccc(S(=O)(=O)OCC(=O)CCC2CCCCC2)cc1 [Compound 174] |  |  |  | TG (percent triglycerides inhibition), Table 3 ([1]; Table 3, dose not given): 100%
